These results are taken from patent US20020065309A1, “Novel Bicyclic and tricyclic pyrrolidine derivatives as GnRH antagonists” (priority 1999, published 2002).

The target of the experiment is T1, human GnRH receptor (Homo sapiens, UniProt P30968).
T1 construct: expressed in transfected cells; host or cells: COS-1 cells infected with recombinant adenovirus; membrane preparation
T1 sequence (P30968 1-328): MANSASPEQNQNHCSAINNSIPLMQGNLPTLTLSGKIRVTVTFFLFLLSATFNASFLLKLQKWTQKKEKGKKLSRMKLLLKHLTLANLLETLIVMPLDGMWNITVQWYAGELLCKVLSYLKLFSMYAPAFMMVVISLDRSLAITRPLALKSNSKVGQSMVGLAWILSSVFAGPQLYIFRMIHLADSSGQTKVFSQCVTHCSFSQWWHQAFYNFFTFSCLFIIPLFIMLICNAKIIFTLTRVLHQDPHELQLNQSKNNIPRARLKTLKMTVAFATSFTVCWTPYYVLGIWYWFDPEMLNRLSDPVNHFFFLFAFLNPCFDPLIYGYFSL
In words: GnRH radioligand binding assay. The following applies: 125I-LHRH-D-Trp6 radioligand; COS-1 cell membranes containing human GnRH receptors; 2 h at 4 C. The method, then:
COS-1 cells infected with a recombinant adenovirus directing the expression of the human GnRH receptor were harvested 48 hours after virus infection using cell dissociation buffer from Gibco-BRL and pelleted by centrifugation (5 min., 1100 rpm in RC3B, […]). The pellet was suspended in 20 ml ice cold binding buffer (25 mM Tris HCl, pH 7.4, 0.1% sodium azide, 0.1% BSA) and homogenized using polytron (Tempest Virtishear, Virtis).
The homogenate was centrifuged for 12 min. at 14,500 rpm in a RC5B and the supernatant discarded. The pellet was re-homogenized in 20 ml of binding buffer and centrifuged. The final pellet was resuspended in a small volume of binding buffer such that the final protein concentration was approximately 1.5 mg/ml (according to Pierce-BCA Protein kit). Aliquots of membrane preparation could then be stored frozen at −70 C without significant loss of binding activity for future use.
Samples were diluted in binding buffer (25 mM Tris pH 7.5, 10 MM MgCl2, 0.01% NaN3, 0.1% BSA) for the assay. The radioligand used was ^125I-LHRH-D-TrP6, approximately 50-70,000 counts/25 μl Non-specific binding was determined using LHRH-D-TrP6 at a final concentration of 1 µM. Addition of GnRH membranes to the assay was optimized to give a signal-to-noise ratio of 10:1.
Twenty-five μl sample (4× final concentration), 50 μl membranes and 25 μl radioligand were incubated in a V-bottom 96-well plate with shaking for 2 h at 4 C. The incubated mixture was then filtered onto a Whatman GF/B membrane pre-treated with 0.1% poly(ethylene imine) using a Packard Cell Harvester. The filter was dried for approximately 10 min. at 37 C. Forty μl Microscint 20 was added and the radioactivity remaining on the filter was counted using a Topcount γ-counter.
Binding inhibition was calculated from the measured values using a concentration series of each test compound in the conventional manner.
For the compound `CCOc1cc(CN2C[C@@H]3C[C@@H](c4ccc(N(C)C)c5ccccc45)N4C(=O)N(CCN5CCOCC5)C(=O)[C@@]34C2)ccc1O` (relative stereo) [AF20660], the 50% inhibitory concentration (IC50) is 0.8 ± 0.11 µM.

Compound `COc1ccc(CN2C[C@@H]3C[C@@H](c4ccc(N(C)C)c5ccccc45)N4C(=O)N(CCN5CCOCC5)C(=O)[C@@]34C2)cc1O` (relative stereo) [AF21276] registered an IC50 of 0.035 ± 0.006 µM. In turn, `COc1cc(CN2C[C@@H]3C[C@@H](c4ccc(N(C)C)c5ccccc45)N4C(=O)N(CCN5CCOCC5)C(=O)[C@@]34C2)c(Br)c(Br)c1O` (relative stereo) [AF21278] yielded an IC50 of 0.28 ± 0.17 µM.

Consider `COc1ccc(CN2C[C@@H]3C[C@@H](c4ccc(OC)c5ccccc45)N4C(=O)N(CCN5CCOCC5)C(=O)[C@@]34C2)cc1O` (relative stereo) [AF21477], for which the IC50 was ~0.612 µM. For the compound `COc1ccc(CN2C[C@@H]3C[C@@H](c4ccc(N(C)C)cc4)N4C(=O)N(CCN5CCOCC5)C(=O)[C@@]34C2)cc1O` (relative stereo) [AF21479], the IC50 was ~0.16 µM. As to `COc1cc(Br)c(CN2C[C@@H]3C[C@@H](c4ccc(N(C)C)c5ccccc45)N4C(=O)N(CCN5CCOCC5)C(=O)[C@@]34C2)cc1O` (relative stereo) [AF21813], the IC50 is ~0.08 µM.

For `COc1ccc(CN2C[C@@H]3C[C@@H](c4ccc(N(C)C)c5ccccc45)N4C(=O)N(CCc5ccncc5)C(=O)[C@@]34C2)cc1O` (relative stereo) [AF22053], the IC50 is ~0.385 µM.

In the case of `COc1ccc(CN2C[C@@H]3C[C@@H](c4ccc(N(C)C)c5ccccc45)N4C(=O)N(CCN5CCNCC5)C(=O)[C@@]34C2)cc1O` (relative stereo) [AF22352], the IC50 was ~1.5 µM.

In the case of `COc1ccc(CN2C[C@H]3C[C@H](c4ccc(N)c5ccccc45)N4C(=O)N(CCN5CCOCC5)C(=O)[C@]34C2)cc1O` (relative stereo) [Compound 17, (trans)-5-[4-amino-1-naphthyl]-8-(3-hydroxy-4-methoxybenzyl)-2-(2-morpholin-4-ylethyl)hexahydro-1H-pyrrolo[3′,4′:2,3]pyrrolo[1,2-c]imidazole-1,3(2H)-dione], the half-maximal inhibitory concentration (IC50) is ~0.321 µM. With `COc1ccc(CN2C[C@H]3C[C@H](c4ccc(N(C)C)c5ccccc45)N4C(=O)N(CCN5CCOCC5)C(=O)[C@]34C2)cc1NC(C)=O` (relative stereo) [Compound 36, N-{5-[((trans)-5-[4-(dimethylamino)-1-naphthyl]-2-(2-morpholin-4-ylethyl)-1,3-dioxohexahydro-1H-pyrrolo[3′,4′:2,3]pyrrolo[1,2-c]imidazol-8(9H)-yl)methyl]-2-methoxyphenyl}acetamide], the IC50 was ~0.021 µM. `COc1ccc(CN2C[C@H]3C[C@H](c4ccnc5ccccc45)N4C(=O)N(CCN5CCOCC5)C(=O)[C@]34C2)cc1O` (relative stereo) [Compound 73, (trans)-8-(3-hydroxy-4-methoxybenzyl)-2-(2-morpholin-4-ylethyl)-5-quinolin-4-ylhexahydro-1H-pyrrolo [3′, 4′:2,3]pyrrolo[1,2-c]imidazole-1,3(2H)-dione]: the 50% inhibitory concentration (IC50) was ~1.5 µM. Regarding `O=C1N(CCN2CCOCC2)C(=O)[C@]23CNC[C@H]2C[C@H](c2cnc4ccccc4c2)N13` (relative stereo) [Compound 76, (trans)-2-(2-morpholin-4-ylethyl)-5-quinolin-3-ylhexahydro-1H-pyrrolo [3′,4′:2,3] pyrrolo [1,2-c]imidazole-1,3(2H)-dione], the IC50 is ~0.27 µM.

In general, IC50 refers to the concentration that inhibits the measured activity by half.
